Reference: patent publication US4044134A, “Fused pyrimidin-4(3H)-ones as antiallergy agents” (Pfizer Inc., priority 1976, dated 1977)
Where a name gives a salt, the structure may show the parent alone. Read-outs that look alike come from different tables or passages of the source.

System: passive cutaneous anaphylaxis (PCA) reaction
Assay: passive cutaneous anaphylaxis (PCA) test, i.v. or oral administration
Type: in vivo, male Charles River Wistar rats
Details: Rattus norvegicus, read-out: degree (%) of protection, PCA test
Description: In the PCA test, normal animals are injected intradermally (i.d.) with antibodies contained in serum obtained from actively sensitized animals. The animals are then challenged intravenously with antigen mixed with a dye such as Evans' Blue. The increased capillary-permeability caused by the antigen-antibody reaction causes the dye to leak from the site of the antibody injection. The test animals are then asphyxiated and the intensity of the reaction determined by measuring the diameter and intensity of the blue coloration on the inner surface of the animals skin. […] The ability of agents to interfere with PCA reactions is measured in male Charles River Wistar rats, 170-210 g. […] Hyperimmune antisera to hen egg albumin is prepared according to Orange, et al., J. Exptl. […] Forty-eight hours prior to antigen challenge the reaginic antisera is injected intradermally (i.d.) into the shaved skin of a normal rat's back; 5 hours before challenge the hyperimmune antisera is similarly injected; 5 hours later, at a third site, 60 mcg. histamine dihydrochloride is injected i.d. as a check for antihistaminic and unspecific types of blockage; the compounds of the instant invention or saline are then administered i.v. and immediately followed by 2.5 mg. Evan's blue dye and 5 mg. egg albumin in saline. In the case of oral administration Evan's blue dye and egg albumen are given five minutes after administration of the drug. Thirty minutes later the animals are asphyxiated using chloroform and the skin of the back removed and reversed for observation. A score is assigned each injection site equal to the product of the diameter of the site in mm. and a grade of 0.1, 0.5, 1, 2, 3 or 4 proportional to intensity of dye coloration. The scores for a given injection site are summed for each group of 8 animals and compared to the saline treated controls. The difference is expressed as percent blockade due to the compound employed. […] Disodium cromoglycate, a commerial antiallergy agent, is included for comparison. [drawing 3]

Row | SMILES | inhibition in vivo at 0.03 mg/kg (iv, I.V.) [%] | inhibition in vivo at 3 mg/kg (iv, I.V.) [%] | inhibition in vivo at 10 mg/kg (Oral) [%] | inhibition in vivo at 0.3 mg/kg (iv, I.V.) [%] | inhibition in vivo at 30 mg/kg (Oral) [%] | other results
1 | CCOC(=O)c1nc2nc3cc(OCC)c(OCC)cc3cc2c(=O)[nH]1 [COOC2 H5/H/H/OC2 H5/OC2 H5/H] | 60 | 100 | 81 |  |  | inhibition in vivo at 0.003 mg/kg (iv, I.V.): 21%; inhibition in vivo at 0.01 mg/kg (iv, I.V.): 43%; inhibition in vivo at 0.1 mg/kg (iv, I.V.): 90%; inhibition in vivo at 0.3 mg/kg (Oral): 42%; inhibition in vivo at 1 mg/kg (Oral): 40%; inhibition in vivo at 3 mg/kg (Oral): 64%
2 | CCOC(=O)c1nc2nc3cc(OCc4ccccc4)c(OCC)cc3cc2c(=O)[nH]1 [COOC2 H5/H/H/OC2 H5/OC7 H7/H] |  | 71 | 0 | 30 | 0 | inhibition in vivo at 0.1 mg/kg (iv, I.V.): 3%
3 | CCOC(=O)c1nc2nc3cc(OC)c(OCC)cc3cc2c(=O)[nH]1 [COOC2 H5/H/H/OC2 H5/OCH3/H] | 85 | 100 | 92 |  |  | inhibition in vivo at 0.003 mg/kg (iv, I.V.): 50%; inhibition in vivo at 0.01 mg/kg (iv, I.V.): 72%; inhibition in vivo at 0.1 mg/kg (iv, I.V.): 99%; inhibition in vivo at 0.3 mg/kg (Oral): 56%; inhibition in vivo at 1 mg/kg (Oral): 76%; inhibition in vivo at 3 mg/kg (Oral): 83%
4 | CCOC(=O)c1nc2nc3ccc(OCc4ccccc4)cc3cc2c(=O)[nH]1 [COOC2 H5/H/H/OC7 H7/H/H, ethyl 7-benzyloxypyrimido-[4,5-b]quinolin-4(3H) one-2-carboxylate] |  | 85 | 60 | 23 |  | inhibition in vivo at 3 mg/kg (Oral): 3%
5 | CCOC(=O)c1nc2nc3ccc(OC)cc3cc2c(=O)[nH]1 [COOC2 H5/H/H/OCH3/H/H, Ethyl 7-Methoxypyrimido[4,5-b]-Quinolin-4(3H)-One-2-Carboxylate] |  | 100 | 43 | 87 |  | inhibition in vivo at 0.1 mg/kg (iv, I.V.): 68%; inhibition in vivo at 3 mg/kg (Oral): 32%
6 | CCOC(=O)c1nc2nc3c(OC)cc(OC)cc3cc2c(=O)[nH]1 [COOC2 H5/H/H/OCH3/H/OCH3] | 14 | 97 |  | 38 | 41 | 
7 | CCOC(=O)c1nc2nc3cc(OCC)c(OC)cc3cc2c(=O)[nH]1 [COOC2 H5/H/H/OCH3/OC2 H5/H, Ethyl 7-methoxy-8-ethoxypyrimido[4,5-b]quinoline-4(3H)-one-2-carboxylate] | 85 | 97 | 73 |  | 80 | inhibition in vivo at 0.003 mg/kg (iv, I.V.): 66%; inhibition in vivo at 0.01 mg/kg (iv, I.V.): 57%; inhibition in vivo at 0.1 mg/kg (iv, I.V.): 94%; inhibition in vivo at 0.3 mg/kg (Oral): 31%; inhibition in vivo at 1 mg/kg (Oral): 44%; inhibition in vivo at 3 mg/kg (Oral): 52%
8 | CCOC(=O)c1nc2nc3cc(OCc4ccccc4)c(OC)cc3cc2c(=O)[nH]1 [COOC2 H5/H/H/OCH3/OC7 H7/H, ethyl 7-methoxy-8-benzyloxypyrimido[4,5-b]quinolin-4(3H)one-2-carboxylate] |  | 94 |  | 23 |  | 
9 | CCOC(=O)c1nc2nc3c(OC)c(OC)c(OC)cc3cc2c(=O)[nH]1 [COOC2 H5/H/H/OCH3/OCH3/OCH3] | 33 | 88 | 0 | 23 |  | 
10 | CCOC(=O)c1nc2nc3cc(O)c(OC)cc3cc2c(=O)[nH]1 [COOC2 H5/H/H/OCH3/OH/H, Ethyl 7-Methoxy-8-Hydroxypyrimido[4,5-b]Quinolin-4(3H)One-2-Carboxylate] |  | 100 |  | 100 |  | inhibition in vivo at 0.003 mg/kg (iv, I.V.): 0%
11 | CCOC(=O)c1nc2nc3ccc(O)cc3cc2c(=O)[nH]1 [COOC2 H5/H/H/OH/H/H, ethyl 7-hydroxypyrimido [4,5-b]quinolin-4(3H)one-2-carboxylate hemitrifluoroacetate] | 21 |  | 13 | 92 |  | inhibition in vivo at 3 mg/kg (Oral): 4%
12 | CCOC(=O)c1nc2nc3cc(OC)c(O)cc3cc2c(=O)[nH]1 [COOC2 H5/H/H/OH/OCH3/H, Ethyl 7-Hydroxy-8-Methoxypyrimido[4,5-b]Quinolin-4(3H)One-2-Carboxylate Trifluoroacetate] | 97 |  |  |  | 6 | inhibition in vivo at 0.0003 mg/kg (iv, I.V., 0.0003 mg/kg): 38%; inhibition in vivo at 0.003 mg/kg (iv, I.V.): 94%; inhibition in vivo at 0.01 mg/kg (iv, I.V.): 98%
13 | CCOC(=O)c1nc2nc3ccc(SC)cc3cc2c(=O)[nH]1 [COOC2 H5/H/H/SCH3/H/H, Ethyl 7-Methylthiopyrimido[4,5-b]quinolin-4(3H)-One-2-Carboxylate] | 8 | 88 | 66 | 91 | 100 | inhibition in vivo at 1 mg/kg (Oral): 0%; inhibition in vivo at 3 mg/kg (Oral): 21%
14 | CCOC(=O)c1nc2nc3ccc([S+](C)[O-])cc3cc2c(=O)[nH]1 (stereo not drawn) [COOC2 H5/H/H/SOCH3/H/H, Ethyl 7-Methylsulfinylpyrimido[4,5-b]quinoline-4(3H)-One-2-Carboxylate] | 0 | 100 |  | 58 | 12 | 
15 | CCOC(=O)c1nc2nc3c(OC)ccc(OC)c3cc2c(=O)[nH]1 [COOC2 H5/H/OCH3/H/H/OCH3] | 0 | 100 |  | 25 | 23 | 
16 | COc1cc2cc3c(=O)[nH]c(C(=O)OCCO)nc3nc2cc1OC [COOCH2 CH2 OH/H/H/OCH3/OCH3/H, 2-hydroxyethyl 7,8-Dimethoxy-pyrimidin[4,5-b]quinolin-4-(3H)-One-2-Carboxylate] | 92 | 97 | 65 | 94 |  | 
17 | O=C(O)c1nc2cc3ccccc3cc2c(=O)[nH]1 [COOH/H/H/H/H (Formula II)] |  | 36 | 33 |  | 0 | inhibition in vivo at 1 mg/kg (iv, I.V.): 14%; inhibition in vivo at 10 mg/kg (iv, I.V.): 100%; inhibition in vivo at 100 mg/kg (Oral): 9%
18 | O=C(O)c1nc2nc3ccc(O)cc3cc2c(=O)[nH]1 [COOH/H/H/OH/H/H, 7-hydroxypyrimido[4,5-b]quinolin-4(3H)one-2-carboxylic acid] | 91 | 100 |  |  |  | inhibition in vivo at 0.003 mg/kg (iv, I.V.): 4%
19 | COc1cc2nc3nc(C(=O)O)[nH]c(=O)c3cc2cc1O [COOH/H/H/OH/OCH3/H, 7-Hydroxy-8-Methoxypyrimido[4,5-b]Quinolin-4(3H)One-2-Carboxylic Acid] |  | 100 |  |  |  | inhibition in vivo at 0.003 mg/kg (iv, I.V.): 90%; inhibition in vivo at 0.01 mg/kg (iv, I.V.): 86%
20 | O=C(O)c1nc2nc3ccccc3cc2c(=O)[nH]1 [COONa/H/H/H/H/H, Pyrimido[4,5-b]Quinolin-4(3H)-One-2-Carboxylic Acid Disodium Salt] |  |  | 0 | 68 |  | inhibition in vivo at 1 mg/kg (iv, I.V.): 92%; inhibition in vivo at 100 mg/kg (Oral): 96%
21 | COc1cc2cc3c(=O)[nH]c(C(=O)O)nc3nc2cc1OC [COONa/H/H/OCH3/OCH3/H] | 96 |  | 17 |  |  | inhibition in vivo at 0.01 mg/kg (iv, I.V.): 71%; inhibition in vivo at 0.1 mg/kg (iv, I.V.): 100%
22 | CCOC(=O)CNC(=O)c1nc2nc3cc(OC)c(OC)cc3cc2c(=O)[nH]1 [N-carbethoxymethyl 7,8-dimethoxypyrimido-[4,5-b]quinolin-4(3H)-one-2-carboxamide] |  | 32 |  |  |  | inhibition in vivo at 30 mg/kg (iv, I.V.): 96%
23 | CCOC(=O)c1nc2ncccc2c(=O)[nH]1 [OC2 H5/H/H/H (Formula III), Ethyl Pyrido[2,3-d]Pyrimidin-4(3H)-One-2-Carboxylate] |  |  |  |  |  | inhibition in vivo at 10 mg/kg (iv, I.V.): 95%; inhibition in vivo at 100 mg/kg (Oral): 0%
24 | O=c1[nH]cnc2nc3ccccc3cc12 [pyrimido[4,5-b]quinolin-4(3H)-one, reference compound] |  | 33 |  |  |  | 
